Results published in ChEMBL document CHEMBL4308839, “Recent Progress in the Discovery of Allosteric Inhibitors of Kidney-Type Glutaminase” (J Med Chem, 2018).

Experiments:
[1] = target: T1, Glutaminase kidney isoform, mitochondrial (Homo sapiens, UniProt O94925); assay: Inhibition of GAC (unknown origin) assessed as NADH formation using 1.8 to 13 mM glutamine as substrate preincubated for 60 mins by resorufin dye based assay
T1 sequence (O94925 whole entry): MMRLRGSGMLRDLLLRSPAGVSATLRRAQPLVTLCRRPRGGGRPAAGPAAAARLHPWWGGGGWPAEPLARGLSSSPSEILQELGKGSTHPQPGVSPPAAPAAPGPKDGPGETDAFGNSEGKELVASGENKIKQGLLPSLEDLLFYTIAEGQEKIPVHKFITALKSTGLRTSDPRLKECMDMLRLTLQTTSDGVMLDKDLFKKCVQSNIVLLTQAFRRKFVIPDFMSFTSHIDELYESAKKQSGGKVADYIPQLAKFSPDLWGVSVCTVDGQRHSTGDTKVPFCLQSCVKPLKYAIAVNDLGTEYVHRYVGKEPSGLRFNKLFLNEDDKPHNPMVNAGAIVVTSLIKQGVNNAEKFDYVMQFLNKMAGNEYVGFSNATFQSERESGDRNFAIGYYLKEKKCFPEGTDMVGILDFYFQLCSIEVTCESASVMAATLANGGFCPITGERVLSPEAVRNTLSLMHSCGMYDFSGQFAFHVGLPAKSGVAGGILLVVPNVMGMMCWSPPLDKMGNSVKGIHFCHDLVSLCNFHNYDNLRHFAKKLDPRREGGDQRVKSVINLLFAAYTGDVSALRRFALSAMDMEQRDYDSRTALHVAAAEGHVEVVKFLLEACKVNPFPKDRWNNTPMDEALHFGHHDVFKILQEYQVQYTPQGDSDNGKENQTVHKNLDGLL

[2] = target: T2, Glutaminase kidney isoform, mitochondrial (Mus musculus, UniProt D3Z7P3); assay: (§1) Inhibition of mouse kidney glutaminase assessed as ammonia formation at 0.1 uM using glutamine as substrate by Nessler's reagent based assay relative to control
T2 sequence (D3Z7P3 whole entry): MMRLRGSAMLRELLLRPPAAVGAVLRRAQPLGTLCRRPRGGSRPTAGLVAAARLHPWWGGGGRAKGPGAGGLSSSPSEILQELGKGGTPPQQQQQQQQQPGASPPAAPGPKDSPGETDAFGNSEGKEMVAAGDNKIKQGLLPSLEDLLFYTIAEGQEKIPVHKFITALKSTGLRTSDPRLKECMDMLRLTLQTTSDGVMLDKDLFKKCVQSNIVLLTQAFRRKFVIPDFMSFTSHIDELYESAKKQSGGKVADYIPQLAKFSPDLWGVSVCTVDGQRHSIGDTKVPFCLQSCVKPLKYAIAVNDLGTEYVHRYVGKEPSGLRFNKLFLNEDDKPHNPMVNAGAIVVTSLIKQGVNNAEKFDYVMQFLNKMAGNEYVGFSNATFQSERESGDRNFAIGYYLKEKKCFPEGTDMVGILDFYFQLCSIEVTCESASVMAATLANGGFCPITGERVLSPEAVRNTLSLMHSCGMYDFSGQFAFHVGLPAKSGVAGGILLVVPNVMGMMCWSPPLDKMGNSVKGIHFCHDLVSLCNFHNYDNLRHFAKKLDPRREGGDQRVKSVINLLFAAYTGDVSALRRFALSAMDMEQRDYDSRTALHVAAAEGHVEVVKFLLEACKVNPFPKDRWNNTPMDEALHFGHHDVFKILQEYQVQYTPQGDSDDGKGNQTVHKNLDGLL

[3] = (§2) Inhibition of mouse brain glutaminase assessed as ammonia formation at 0.1 uM using glutamine as substrate by Nessler's reagent based assay relative to control
[4] = target: T1, Glutaminase kidney isoform, mitochondrial; assay: Inhibition of human KGA (63 to 669 residues) preincubated for 15 mins using 50 mM glutamine as substrate by resorufin dye based assay
[5] = target: T1, Glutaminase kidney isoform, mitochondrial; assay: Inhibition of GAC (unknown origin) using 1 mM glutamine as substrate preincubated for 10 mins by resorufin dye based assay
[6] = target: T1, Glutaminase kidney isoform, mitochondrial; assay: Inhibition of kidney-type glutaminase in human BT20 cells assessed as reduction in glutamate level; format: cell-based
[7] = target: T1, Glutaminase kidney isoform, mitochondrial; assay: Inhibition of GAC (unknown origin) assessed as NADH formation using 10 mM glutamine as substrate preincubated for 60 mins
[8] = target: T1, Glutaminase kidney isoform, mitochondrial; assay: Inhibition of human KGA (1 to 669 residues) preincubated for 20 mins using 7 mM glutamine as substrate
[9] = target: T2, Glutaminase kidney isoform, mitochondrial; assay: Inhibition of mouse kidney glutaminase assessed as ammonia formation using glutamine as substrate by Nessler's reagent based assay
[10] = Inhibition of mouse brain glutaminase assessed as ammonia formation using glutamine as substrate by Nessler's reagent based assay
[11] = target: T3, Glutaminase kidney isoform, mitochondrial (Mus musculus) (UniProt D3Z7P3); assay: as §1
T3 sequence (whole entry): T2 sequence (D3Z7P3 whole entry)

Mus musculus = organism: Mus musculus; assay: as §2

SMILES	IC50 [1]	IC50 [5]	further results
O=C(Cc1cccc(OC(F)(F)F)c1)Nc1ccc(N2CCC(c3nnc(NC(=O)Cc4ccccn4)s3)CC2)nn1	–	–	IC50 [2]: < 50 nM; IC50 [3]: < 50 nM
O=C(Cc1ccccn1)Nc1nnc(C[C@@H]2C[C@H]2Cc2nnc(NC(=O)Cc3ccccn3)s2)s1 (racemic)	500 to 1000 nM	–	–
O=C(Nc1nnc(N[C@@H]2CCN(c3cccnn3)C2)s1)[C@@H](c1cccc(OC(F)(F)F)c1)N1CCC1	–	–	IC50 [4]: 100 nM
O=C(Cc1ccccc1)Nc1ccn(CCCCc2nnc(NC(=O)Cc3ccccc3)s2)c(=O)c1	–	≤ 100 nM	–
O=C(Cc1ccccn1)Nc1ccc([C@@H]2CCC[C@H](c3ccc(NC(=O)Cc4ccccn4)nn3)C2)nn1	< 100 nM	–	–
Cn1ccc(CC(=O)Nc2nnc([C@H]3C[C@]4(C[C@H](c5nnc(NC(=O)Cc6ccn(C)n6)s5)C4)C3)s2)n1 (some centres undefined)	–	–	IC50 [6]: 0.5 nM
O=C(Cc1ccccc1)Nc1ccn(CCCCc2cc3cc(Cc4ccccc4)[nH]c3nn2)c(=O)c1	–	≤ 100 nM	–
CC(=O)Nc1ccc([C@@H]2CCC[C@H](c3ccc(NC(C)=O)nn3)C2)nn1	< 100 nM	–	–
O=C(Cc1cccc(OC(F)(F)F)c1)Nc1ccc(C[C@@H]2CC[C@H](c3nnc(NC(=O)Cc4ccccn4)s3)C2)nn1	–	–	IC50 [6]: 0.1 nM
CO[C@H](C(=O)Nc1ccc(N2CC[C@@H](Nc3cccnn3)C2)nn1)c1cccc(OC(F)F)c1	–	–	IC50 [4]: 25 nM
O=C(Cc1ccccc1)Nc1nnc([C@H]2CCC[C@H](c3nnc(NC(=O)Cc4ccccc4)s3)C2)s1	< 100 nM	–	–
O=C(Cc1ccccc1)Nc1ccn(CCCCc2nnc(NC(=O)Cc3ccccc3)s2)c(=O)n1	–	≤ 100 nM	–
Cn1ccc(CC(=O)Nc2nnc([C@H]3C[C@@]4(C[C@H](c5nnc(NC(=O)Cc6ccn(C)n6)s5)C4)C3)s2)n1 (some centres undefined)	–	–	IC50 [6]: 2.7 nM
O=C(Cc1ccccn1)Nc1ccc([C@@H]2CCN(c3nnc(C(=O)NCc4cc(C(F)(F)F)ccn4)s3)C2)nn1	–	≤ 100 nM	–
CN(C)c1ccc(CC(=O)Nc2nnc(CCCCc3nnc(NC(=O)Cc4ccc(N(C)C)cc4)s3)s2)cc1	–	–	IC50 [7]: 240 nM
O=C(Cc1c[nH]c2ccccc12)Nc1nnc(CCCCc2nnc(NC(=O)Cc3c[nH]c4ccccc34)s2)s1	< 100 nM	–	–
O=C(NCc1ccccn1)c1cn(CCCCc2nnc(C(=O)NCc3cccc(OC(F)(F)F)c3)s2)nn1	–	< 100 nM	–
O=C(Cc1ccccc1)Nc1ccn(CCC(F)Cn2cc(C(=O)NCc3cccc(OC(F)(F)F)c3)nn2)c(=O)c1 (centres undefined)	–	≤ 100 nM	–
O=C(Cc1ccccc1)Nc1nnc(CCCCc2cc3cc(Cc4ccccc4)[nH]c3nn2)s1	–	≤ 100 nM	–
O=C(Cc1ccccc1)Nc1ccn(CC(F)CCn2cc(C(=O)NCc3cccc(OC(F)(F)F)c3)nn2)c(=O)c1 (centres undefined)	–	≤ 100 nM	–

SMILES	IC50 [1]	IC50 [5]	further results
O=C(Cc1ccccc1)Nc1ccc(CCCCc2ccc(NC(=O)Cc3ccccc3)nn2)nn1	–	–	IC50 [7]: 10 nM
O=C(Cc1ccccc1)Nc1ccc(CCCCn2ccc(NC(=O)Cc3ccccc3)nc2=O)nn1	–	≤ 100 nM	–
O=C(Cc1cccc(OC(F)(F)F)c1)Nc1ccc(N2CCC(c3nnc(NC(=O)Cc4ccccn4)s3)CC2)cn1	–	–	IC50 [2]: 1000 to 2000 nM; IC50 [3]: 1000 to 2000 nM
O=C(CCCC(=O)c1ccccc1)Nc1nnc(CCCCc2nnc(NC(=O)CCCC(=O)c3ccccc3)s2)s1	< 100 nM	–	–
O=C(NCc1ccccc1)c1cn(CCCCc2cc3cc(Cc4ccccc4)[nH]c3nn2)nn1	–	≤ 100 nM	–
O=C(Nc1nnc(CCOCCc2nnc(NC(=O)c3ccccc3)s2)s1)c1ccccc1	–	–	IC50 [8]: 10200 nM
O=C(Cc1cccc(OC(F)(F)F)c1)Nc1ccc(CCCCc2nnc(NC(=O)Cc3ccccn3)s2)cn1	–	–	IC50 [9]: 50 to 100 nM; IC50 [10]: 50 to 100 nM
O=C(Cc1ccccc1)Nc1ccn(CCCCn2cc(C(=O)NCc3cccc(OC(F)(F)F)c3)nn2)c(=O)c1	–	≤ 100 nM	–
O=C(Cc1ccccn1)Nc1ccc(N2CCC(c3nnc(NC(=O)Cc4cccc(OC(F)(F)F)c4)s3)CC2)nn1	–	–	IC50 [2]: < 50 nM; IC50 [3]: < 50 nM
O=C(Cc1ccccn1)Nc1ccc([C@H]2CCC[C@H](c3ccc(NC(=O)Cc4ccccn4)nn3)C2)nn1	< 100 nM	–	–
O=C(Cc1ccccn1)Nc1nnc(CC2CCC(Cc3nnc(NC(=O)Cc4ccccn4)s3)C2)s1 (centres undefined)	2000 to 10000 nM	–	–
O=C(Cc1ccccn1)Nc1nnc(C[C@H]2CC[C@H](Cc3nnc(NC(=O)Cc4ccccn4)s3)CC2)s1	500 to 1000 nM	–	–
CO[C@H](C(=O)Nc1nnc(N[C@@H]2CCN(c3cc(Cl)cnn3)C2)s1)c1ccccc1	–	–	IC50 [4]: 40 nM
O=C(Cc1cccc(OC(F)(F)F)c1)Nc1ccc(N2CCCC(c3nnc(NC(=O)Cc4ccccn4)s3)C2)nn1 (centres undefined)	–	–	IC50 [2]: 50 to 200 nM; IC50 [3]: 50 to 200 nM
O=C(Cc1cccc(OC(F)(F)F)c1)Nc1cnc(CCCCc2nnc(NC(=O)Cc3ccccn3)s2)cn1	–	–	inhibition [11]: < 25%; inhibition (Mus musculus): < 25%
CC(=O)Nc1ccc([C@H]2CCC[C@H](c3ccc(NC(C)=O)nn3)C2)nn1	2000 to 10000 nM	–	–
O=C(Cc1cccc(OC(F)(F)F)c1)Nc1ccc(CC2CC(c3nnc(NC(=O)Cc4ccccn4)s3)C2)nn1 (centres undefined)	–	–	IC50 [2]: < 25 nM; IC50 [3]: < 25 nM
Cc1ccc(CNC(=O)c2cn(CCCCc3cc4cc(-c5ccccc5F)[nH]c4nn3)nn2)cn1	–	≤ 100 nM	–
O=C(Cc1cccc(OC(F)(F)F)c1)Nc1ccc(C[C@H]2C[C@@H](c3nnc(NC(=O)Cc4ccccn4)s3)C2)nn1	–	–	IC50 [6]: 0.2 nM
O=C(Cc1ccccc1)Nc1ccc(CCCCc2nnc(NC(=O)Cc3ccccc3)s2)nn1	–	–	IC50 [7]: 80 nM

Second part, led by results:

IC50 [1]	IC50 [5]	SMILES	further results
1000 to 2000 nM	–	O=C(Cc1ccccn1)Nc1nnc(C2CCCCC(c3nnc(NC(=O)Cc4ccccn4)s3)C2)s1 (centres undefined)	–
< 100 nM	–	O=C(Cc1ccccn1)Nc1nnc([C@@H]2CC[C@@H](c3nnc(NC(=O)Cc4ccccn4)s3)C2)s1	–
–	≤ 100 nM	O=C(Cc1cccc(OC(F)(F)F)c1)Nc1ccc(C2CCN(c3nnc(NC(=O)Cc4ccccn4)s3)C2)nn1 (centres undefined)	–
1000 to 2000 nM	–	O=C(Cc1ccccn1)Nc1nnc([C@@H]2CCC[C@@H](c3nnc(NC(=O)Cc4ccccn4)s3)C2)s1	–
500 to 1000 nM	–	O=C(Cc1ccccn1)Nc1nnc([C@@H]2CC[C@H](c3nnc(NC(=O)Cc4ccccn4)s3)C2)s1	–
2000 to 10000 nM	–	O=C(Cc1ccccn1)Nc1nnc(CC2CC(Cc3nnc(NC(=O)Cc4ccccn4)s3)C2)s1 (centres undefined)	–
< 100 nM	–	O=C(Cc1ccccn1)Nc1nnc([C@H]2CCC[C@H](c3nnc(NC(=O)Cc4ccccn4)s3)C2)s1	–
1000 to 2000 nM	–	O=C(Cc1ccccn1)Nc1nnc([C@@H]2CCC[C@H](c3nnc(NC(=O)Cc4ccccn4)s3)C2)s1	–
–	100 to 500 nM	O=C(Cc1ccccn1)Nc1ccc([C@H]2CCN(c3nnc(C(=O)NCc4cc(C(F)(F)F)ccn4)s3)C2)nn1	–
< 100 nM	–	O=C(Cc1ccccn1)Nc1nnc([C@H]2CC[C@H](c3nnc(NC(=O)Cc4ccccn4)s3)C2)s1	–
–	≤ 100 nM	O=C(Cc1cccc(OC(F)(F)F)c1)Nc1ccc(N2CCC(c3nnc(NC(=O)Cc4ccccn4)s3)C2)nn1 (centres undefined)	–
–	< 100 nM	O=C(Cc1cccc(OC(F)(F)F)c1)Nc1ccc(CCCCc2nnc(C(=O)NCc3ccccn3)s2)nn1	–
